Experimental data published in ChEMBL document CHEMBL4813952, “Axial Chiral Binaphthoquinone and Perylenequinones from the Stromata of Hypocrella bambusae Are SARS-CoV-2 Entry Inhibitors” (J Nat Prod, 2021).
Active and inactive are the calls of the source. The calls are words filed in the database; no cut-off is given here.

Legend:
[1] = molecular target: Spike glycoprotein (Severe acute respiratory syndrome coronavirus 2) (UniProt P0DTC2); assay: Inhibition of SARS-CoV-2 spike glycoprotein S expressed in human HEK293T cells cotransfected with pAAV-IRES-GFP assessed as inhibition of membrane fusion to African green monkey Vero E6 cells causing suppression of syncytium formation at 2 uM preincubated for 30 mins measured after 24 hrs by cell-cell fusion based fluorescence microscopy; settings: time 24.5 hrs
[2] = Cytotoxicity against human 293T/ACE2 cells measured after 48 hrs by CCK8 assay; assay type: cell-based
SARS-CoV-2 [3] = assay: Antiviral activity against SARS-CoV-2 Wuhan-HU-1 infected in African green monkey Vero E6 cells assessed as inhibition of viral infection when cells were preincubated for 1 hr followed by viral infection measured after 24 hrs by qPCR analysis; assay type: functional, organism-based; settings: Severe acute respiratory syndrome coronavirus 2, Wuhan-HU-1, Vero C1008
[4] = molecular target: Spike glycoprotein (Severe acute respiratory syndrome coronavirus 2) (UniProt P0DTC2); assay: Inhibition of spike glycoprotein S in SARS-CoV-2 pseudovirus infected in human 293T/ACE2 cells assessed as inhibition of viral infection; assay type: cell-based
Vero C1008 = assay: Cytotoxicity against African Green monkey Vero E6 cells at 10 uM measured after 24 to 48 hrs by CCK8 assay; assay type: cell-based; settings: chlorocebus sabaeus, vero c1008, 10 µM, time 24-48 hrs
SARS-CoV-2 [5] = assay: Antiviral activity against SARS-CoV-2 Wuhan-HU-1 infection on African green monkey Vero E6 cells assessed by drecrease in viral nucleocapsid N-protein expression measured after 48 hrs by DAPI staining based immunofluorescence microscopy; assay type: functional, organism-based; settings: Severe acute respiratory syndrome coronavirus 2, dose 0.08-2.2 µM
Spike glycoprotein = Spike glycoprotein (Severe acute respiratory syndrome coronavirus 2, UniProt P0DTC2); assay: Binding affinity to SARS-CoV-2 spike glycoprotein S RBD at 25 degreeC by surface plasmon resonance assay
SARS-CoV-2 [6] = assay: Antiviral activity against SARS-CoV-2 Wuhan-HU-1 infection on African green monkey Vero E6 cells assessed by drecrease in viral nucleocapsid N-protein expression at 20 uM measured after 48 hrs by DAPI staining based immunofluorescence microscopy; assay type: functional, organism-based; settings: Severe acute respiratory syndrome coronavirus 2

Compound | inhibition [1] | CC50 at 48 h [2] [nM] | EC50 (SARS-CoV-2 [3]) [nM] | inhibition [4] | Activity (Vero C1008) | Activity (SARS-CoV-2 [5]) | Kd (Spike glycoprotein) [nM] | Activity (SARS-CoV-2 [6])
COc1c2c3c4c(c(OC)c(=O)c5c(O)cc(OC)c(c6c(OC)cc(O)c(c1=O)c63)c54)[C@@H](C(C)=O)[C@@](C)(O)C2 [HYPOCRELLIN A] | inactive | 2000 | 220 | inactive | Non-Toxic | Dose-Dependent Effect | 37.9 | –
COC1=CC(=O)c2c(O)c(OC)c3c(c2C1=O)-c1c(c(OC)c(O)c2c1C(=O)C(OC)=CC2O)C[C@](C)(O)[C@@H]3C(C)=O (stereo not given in full) | – | > 10000 | – | inactive | – | – | – | –
COc1c(O)c2c(=O)cc(OC)c3c4c(OC)cc(=O)c5c(O)c(OC)c6c(c(c1C[C@](C)(O)[C@H]6C(C)=O)c23)c54 | inactive | 2500 | 210 | inactive | Non-Toxic | Dose-Dependent Effect | 22.8 | –
COC1=C2c3c4c5c(c(O)cc(OC)c5c5c(OC)cc(O)c(c35)C1=O)C(=O)[C@@H](OC)[C@@]41C[C@](C)(O)[C@@H]2[C@]1(C)O | – | > 10000 | – | inactive | – | – | – | –
COc1c2c3c4c(c(OC)c(=O)c5c(O)cc(OC)c(c6c(OC)ccc(c1=O)c63)c54)CC(C)=C2C(C)=O | – | > 10000 | – | inactive | – | – | – | –
COC1=C(CC(C)=O)C(=O)c2c(c(O)cc(OC)c2-c2c(OC)cc(O)c3c2C(=O)C(CC(C)=O)=C(OC)C3=O)C1=O | – | > 10000 | – | inactive | – | – | – | inactive
COC1=C2c3c4c5c(c(O)cc(OC)c5c5c(OC)cc(O)c(c35)C1=O)C(=O)[C@@H](OC)[C@@]41C[C@](C)(O)[C@@H]2[C@@]1(C)O | – | > 10000 | – | inactive | – | – | – | –
